According to PubChem BioAssay (NCI):
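48-hour exposure; five concentrations; linearly interpolated endpoints. TGI: concentration producing complete growth inhibition.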

Legend:
Assay in all cases: NCI tumour cell line growth inhibition, 48 h
786-0 renal = tested on: 786-0 renal
DMS 114 small cell lung = tested on: DMS 114 small cell lung
HOP-18 NSCLC = tested on: HOP-18 NSCLC
KM20L2 colon = tested on: KM20L2 colon
SNB-78 CNS = tested on: SNB-78 CNS
M19-MEL melanoma = tested on: M19-MEL melanoma
RXF-631 renal = tested on: RXF-631 renal
DMS 273 small cell lung = tested on: DMS 273 small cell lung
DLD-1 colon = tested on: DLD-1 colon
LXFL 529 NSCLC = tested on: LXFL 529 NSCLC
XF 498 CNS = tested on: XF 498 CNS
P388 leukemia = tested on: P388 leukemia
SN12K1 renal = tested on: SN12K1 renal
P388/ADR leukemia = tested on: P388/ADR leukemia

| SMILES | TGI (786-0 renal) | TGI (DMS 114 small cell lung) | TGI (HOP-18 NSCLC) | TGI (KM20L2 colon) | TGI (SNB-78 CNS) | TGI (M19-MEL melanoma) | TGI (DMS 273 small cell lung) | TGI (DLD-1 colon) | TGI (LXFL 529 NSCLC) | TGI (XF 498 CNS) | further results |
| --- | --- | --- | --- | --- | --- | --- | --- | --- | --- | --- | --- |
| O=C(c1ccc2ccccc2c1)N(Cc1cccnc1)C(=S)N(Cc1cccnc1)C(=O)c1ccc2ccccc2c1 | 73.4 µM | – | – | – | – | – | – | – | – | – | – |
| C=C1CC[C@@H](Br)C(C)(C)[C@]12CCC(C)(O)C(Cl)C2 (some centres not stated) | – | 31.8 µM | 59.1 µM | 32.9 µM | > 100 µM | 34.3 µM | 36.2 µM | 32.6 µM | – | – | TGI (RXF-631 renal): 41.9 µM |
| CCOC(=O)[C@H]1Nc2c(cccc2[N+](=O)[O-])[C@H]2OCC[C@@H]12 | – | > 100 µM | > 100 µM | > 100 µM | > 100 µM | > 100 µM | > 100 µM | > 100 µM | > 100 µM | > 100 µM | TGI (RXF-631 renal): > 100 µM |
| O=C(O)c1ccc([N+]2=Cn3c(nc4ccccc43)C2)cc1 | > 100 µM | – | – | – | – | – | – | – | – | – | – |
| O=C1C(c2c(O)[nH]c3ccc(S(=O)(=O)O)cc23)=Nc2ccc(Br)cc21 | > 100 µM | – | – | – | – | – | – | – | – | – | – |
| CCC1(CCSC(=N)N)C(=O)NC(=O)NC1=O | > 100 µM | – | – | – | – | – | – | – | – | – | – |
| O=C(O)CCSCc1ccc(I)cc1 | > 100 µM | – | – | – | – | – | – | – | – | – | – |
| CCCCCCCCCCCCCCCC(=O)OCC1CCCN2CCCCC12 (configuration not stated) | > 100 µM | – | – | – | – | – | – | – | – | – | – |
| O=C1Nc2ccccc2S/C1=C\c1cccc(C(F)(F)F)c1 | > 100 µM | – | – | – | – | – | – | – | – | – | – |
| CCOC(=O)CC1(O)CCCCC1(Sc1ccc(C)cc1)Sc1ccc(C)cc1 (configuration not stated) | > 100 µM | – | – | – | – | – | – | – | – | – | – |
| O=C(CCl)NC(Cc1ccc(F)cc1)C(=O)O (configuration not stated) | – | > 100 µM | > 100 µM | > 100 µM | > 100 µM | > 100 µM | > 100 µM | > 100 µM | – | > 100 µM | TGI (P388 leukemia): > 100 µM; TGI (SN12K1 renal): > 100 µM; TGI (P388/ADR leukemia): > 100 µM |
| Cc1ccc(C[P+]2(c3ccccc3)CCCCC2)cc1 | > 100 µM | 64.1 µM | – | > 100 µM | 92.4 µM | 50.5 µM | > 100 µM | > 100 µM | 85.6 µM | 0.537 µM | – |
| CC(C)OC(=O)C1=C(O)c2ccccc2S(=O)(=O)N1 | > 100 µM | – | > 100 µM | > 100 µM | > 100 µM | > 100 µM | > 100 µM | > 100 µM | > 100 µM | > 100 µM | TGI (RXF-631 renal): > 100 µM |
| N=c1nc2n(cc1F)[C@@H]1O[C@H](CO)[C@@H](O)[C@@H]1O2 | > 38.9 µM | – | > 100 µM | > 100 µM | > 100 µM | > 100 µM | > 100 µM | > 100 µM | > 100 µM | > 100 µM | – |
| O=C1Nc2ccccc2S/C1=C\c1ccccc1C(F)(F)F | > 100 µM | – | – | – | – | – | – | – | – | – | – |
| O=[As](O)(O)c1ccc(N=Nc2ccc([As](=O)(O)O)cc2)cc1 | > 100 µM | – | – | – | – | – | – | – | – | – | – |
| Cc1ccc([N+](=O)[O-])cc1NC(=O)C(=O)C(C(=O)c1ccccc1F)C1OC(=O)c2ccccc21 (configuration not stated) | – | 61.2 µM | – | > 100 µM | > 100 µM | > 100 µM | > 100 µM | > 100 µM | > 100 µM | > 100 µM | TGI (RXF-631 renal): > 100 µM |
| Oc1c2c(c3c4c1N=CC=4CCN=3)-c1c(Br)cc(Br)cc1CCN2 | – | 7.12 µM | 7.91 µM | 8.2 µM | 29.2 µM | 3.33 µM | 11.8 µM | 3.85 µM | – | > 38.5 µM | TGI (SN12K1 renal): 15.4 µM; TGI (P388/ADR leukemia): 5.83 µM |
| O=[N+]([O-])c1ccc2c(c1)Nc1c3ccccc3nc3cccc-2c13 | 7.36 µM | – | – | – | – | – | – | – | – | – | – |
| O=C(N/C(=C\c1cccc([N+](=O)[O-])c1)c1nc2[nH]c(=S)[nH]c(=O)c2[nH]1)c1ccccc1 | > 100 µM | > 100 µM | > 100 µM | > 100 µM | > 100 µM | > 100 µM | – | > 100 µM | > 100 µM | > 100 µM | TGI (RXF-631 renal): > 100 µM |
| Nc1nncc2c1ccn2C1OC(CO)C(O)C1O (configuration not stated) | – | > 100 µM | > 100 µM | > 100 µM | > 100 µM | > 100 µM | > 100 µM | > 100 µM | > 100 µM | – | – |
| Cc1ccc(S(=O)(=O)N/N=c2\c(C)c(C3=NS(=O)(=O)c4cc(S(N)(=O)=O)c(Cl)cc4N3)oc3c(Cl)cc(Cl)cc23)cc1 | > 100 µM | > 100 µM | > 100 µM | > 100 µM | > 100 µM | > 100 µM | 54 µM | > 100 µM | > 100 µM | – | TGI (RXF-631 renal): > 100 µM |
| Nc1c(-c2nc3ccccc3o2)sc(=S)n1-c1ccc(Cl)cc1 | 22.9 µM | – | – | – | – | – | – | – | – | – | – |
| O=C(O)c1cc2cc(c1)N=Cc1ccccc1OCc1cccc(n1)COc1ccccc1C=N2 | > 25 µM | – | – | – | – | – | – | – | – | – | – |
